Test results published in PMC3917258, “6-Bromoisatin Found in Muricid Mollusc Extracts Inhibits Colon Cancer Cell Proliferation and Induces Apoptosis, Preventing Early Stage Tumor Formation in a Colorectal Cancer Rodent Model” (Marine Drugs, 2013).

Assay: Blood hematology
Type: in vivo, mice (C57BL/6J)
Method: To detect the early stage prevention of colon cancer, an established AARGC rodent model with injection of the carcinogen AOM was used. Synthetic 6-bromoisatin at 3 different dosages (0.025, 0.05 and 0.1 mg/g body weight) was administered to mice by daily oral gavage in 100 µL sunflower oil, containing 0.02% Vitamin E, for two weeks. The control group was gavaged with sunflower oil (containing 0.02% Vitamin E) only. After two weeks, all mice were injected with a single intraperitoneal (i.p.) injection of AOM at a dosage of 10 mg/kg bodyweight and euthanized 6 h later by cervical dislocation under anesthesia. […] The distal colon of each mouse was excised and fixed in 10% buffered formalin for 24 h and then embedded in paraffin for histological and immunohistological examination.
Blood samples (0.5–1 mL) were obtained from the mice under anesthesia by cardiac puncture at time of kill and transferred to Gribbles Veterinary Pathology laboratory, Adelaide within heparinized vacutainer tubes then centrifuged to separate into the cell layer for hematology analysis (Abbott Cell Dyn 3700 analyzer, North Ryde, NSW, Australia) and plasma for biochemistry analysis (Siemens Advia 1800 chemistry analyzer, Erlangen, Germany). The plasma levels of the liver enzymes AST, ALT and ALP were assessed as indicators of hepatotoxicity.

[1] = 0.025 mg/g, n = 6, 6 h after AOM 10 mg/kg
[2] = 0.05 mg/g, n = 6, 6 h after AOM 10 mg/kg
[3] = 0.1 mg/g, n = 8, 6 h after AOM 10 mg/kg

- Hct (Hematocrit) [1]: 0.4 ± 0.01 L/L
- Hemoglobin [1]: 139.7 ± 5.1 g/L
- Lymphocytes [1]: 3.3 ± 1.1 ×10^9/L
- MCH (Mean Corpuscular Hemoglobin) [1]: 15.0 ± 0.0 pg
- MCHC (Mean Corpuscular Hemoglobin Concentration) [1]: 322.7 ± 1.5 g/L
- MCV (Mean Corpuscular Volume) [1]: 46.5 ± 0.8 fL
- Monocytes [1]: 0.2 ± 0.3 ×10^9/L
- Neutrophils [1]: 1.6 ± 0.8 ×10^9/L
- Red cell count [1]: 9.3 ± 0.4 ×10^12/L
- White cell count [1]: 5.2 ± 1.8 ×10^9/L
- Hct (Hematocrit) [2]: 0.4 ± 0.01 L/L
- Hemoglobin [2]: 135.0 ± 3.5 g/L
- Lymphocytes [2]: 3.4 ± 0.8 ×10^9/L
- MCH (Mean Corpuscular Hemoglobin) [2]: 15.0 ± 0.0 pg
- MCHC (Mean Corpuscular Hemoglobin Concentration) [2]: 319.0 ± 2.8 g/L
- MCV (Mean Corpuscular Volume) [2]: 46.7 ± 1.2 fL
- Monocytes [2]: 0.2 ± 0.1 ×10^9/L
- Neutrophils [2]: 2.2 ± 1.3 ×10^9/L
- Red cell count [2]: 9.1 ± 0.4 ×10^12/L
- White cell count [2]: 5.8 ± 1.5 ×10^9/L
- Hct (Hematocrit) [3]: 0.4 ± 0.02 L/L
- Hemoglobin [3]: 138.4 ± 5.7 g/L
- Lymphocytes [3]: 2.3 ± 0.9 ×10^9/L
- MCH (Mean Corpuscular Hemoglobin) [3]: 15.0 ± 0.0 pg
- MCHC (Mean Corpuscular Hemoglobin Concentration) [3]: 319.8 ± 3.0 g/L
- MCV (Mean Corpuscular Volume) [3]: 46.4 ± 0.7 fL
- Monocytes [3]: 0.1 ± 0.1 ×10^9/L
- Neutrophils [3]: 0.8 ± 0.7 ×10^9/L
- Red cell count [3]: 9.4 ± 0.5 ×10^12/L
- White cell count [3]: 3.2 ± 1.1 ×10^9/L
SMILES: O=C1Nc2cc(Br)ccc2C1=O [6-bromoisatin, 6-Bromoindole-2,3-dione]
